Patent publication US10982219B2, “Guayule with increased rubber production and yield” (The United States of America, as represented by the …, priority 2017, dated 2021)

Experiments:
Format in all cases: in vivo, Parthenium argentatum
[1] = tested on: guayule G7-11 plants; assay: Exogenous SA applied to soil of greenhouse guayule, growth and rubber content; details: 50 ml of 10 nM SA to soil twice weekly for two months
Protocol: (§1) The effect of SA on guayule PaAos gene expression is tested in wild-type guayule G7-11 plants. SA is added to the growth medium (K0) in tissue culture at different concentrations, 0 nM, 10 nM and 100 nM. Shoot tips are transferred to the growth media, and plants are grown for 8 weeks. The rubber content of the plant tissues is determined by standard procedures (ASE, see Example 3 supra). […] The effect of exogenous 10 nM SA on one month old guayule plants grown in the soil under greenhouse conditions is also examined.

[2] = tested on: guayule G7-11 plants; assay: Exogenous SA in tissue culture growth medium, rubber content by ASE; details: 8 weeks, versus 0 nM
Protocol: as §1

[3] = tested on: PaAos; assay: qRT-PCR of PaAOS in SA treated soil-grown guayule; details: 10 nM SA to soil twice weekly for two months
Protocol: as §1

## O=C(O)c1ccccc1O [SA, salicylic acid]
[1]; versus mock or water treated
  height and primary stem diameter: significant differences in the height and primary stem diameter
[1]; versus mock treated
  rubber content: slightly increases and significantly differs
[2]; 10 nM SA in growth medium
  amount of rubber produced: increases the amount of rubber produced in a significant manner
[2]; 100 nM SA in growth medium
  amount of rubber produced: increases the amount of rubber produced in a significant manner
[3]
  PaAOS expression (qRT-PCR): low expression pattern
